What was measured:
[1] = system: rat liver microsomes; test: Metabolic stability in rat liver microsomes (RLM); settings: RLM; for RLM, % (half-life as % vs. the related nondeuterated compound): values in square brackets are within 10% difference (assay's accuracy), no deuteration effect; for RLM (metabolized or not): last assay time point 120 min
[2] = target: T1, hrMAO-A (Homo sapiens, UniProt P21397); test: Metabolic stability in the presence of hrMAO-A; type: in vitro ADME; settings: MAO-A; values in square brackets are within 10% difference (assay's accuracy), no deuteration effect
T1 construct: purchased XenoTech Lot #8213001
T1 sequence (P21397 1-527): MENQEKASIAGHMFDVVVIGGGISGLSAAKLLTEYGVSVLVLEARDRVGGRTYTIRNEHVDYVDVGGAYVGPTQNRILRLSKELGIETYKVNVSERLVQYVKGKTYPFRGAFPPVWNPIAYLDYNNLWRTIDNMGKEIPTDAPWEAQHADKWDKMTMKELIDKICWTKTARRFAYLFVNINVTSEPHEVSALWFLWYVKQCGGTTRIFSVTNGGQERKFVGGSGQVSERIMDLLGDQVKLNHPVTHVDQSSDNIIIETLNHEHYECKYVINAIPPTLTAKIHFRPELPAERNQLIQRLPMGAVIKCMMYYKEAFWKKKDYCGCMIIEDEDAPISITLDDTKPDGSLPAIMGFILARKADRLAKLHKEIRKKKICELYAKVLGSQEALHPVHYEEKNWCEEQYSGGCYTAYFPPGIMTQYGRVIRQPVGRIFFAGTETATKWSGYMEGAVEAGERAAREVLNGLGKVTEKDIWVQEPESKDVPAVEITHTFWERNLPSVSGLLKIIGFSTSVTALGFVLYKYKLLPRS
Procedure: The reaction mixture was prepared as described below. The co-dosed TAs were added into the reaction mixture at a final concentration of 1 microM each. The positive control, kynuramine (25 microM), was run simultaneously with the TAs in a separate reaction. The reaction mixture (without TAs or kynuramine) was equilibrated in a shaking water bath at 37° C. for 5 minutes. The reaction was initiated by the addition of the TAs or kynuramine, and the mixture was incubated in a shaking water bath at 37° C. Aliquots (100 microL) of the TA reaction mixture were withdrawn at 0, 5, 10, 20, 30, 60, and 120 minutes. Aliquots (100 microL) of the positive control reaction mixture were withdrawn at 0 and 30 minutes. TA and kynuramine samples were immediately combined with 100 microL of ice-cold 100% MeCN containing 0.1% formic acid and IS to terminate the reaction. The samples were then mixed and centrifuged to precipitate proteins. All TA samples were assayed by LC-HRAMS. The PARR (analyte to IS) at each time point was compared to the PARR at time 0 to determine the percent remaining at each time point. Reaction composition: hrMAO 0.02 mg/mL; Potassium Phosphate, pH 7.4 100 mM; Magnesium Chloride 5 mM; Test Articles (each) 1 microM.

[2H]C([2H])(c1c[nH]c2ccccc12)C([2H])([2H])N(CC=C)CC=C
RLM, % (half-life as % vs. the related nondeuterated compound) [1]: [106] %

[2H]C([2H])([2H])C([2H])([2H])NC([2H])([2H])C([2H])([2H])c1c[nH]c2ccccc12
MAO, % (half-life as % vs. the related nondeuterated compound) [2]: 166% | RLM, % (half-life as % vs. the related nondeuterated compound) [1]: 159%

[2H]C([2H])(Cc1c[nH]c2ccccc12)NC([2H])([2H])C([2H])([2H])[2H]
MAO, % (half-life as % vs. the related nondeuterated compound) [2]: 170% | RLM, % (half-life as % vs. the related nondeuterated compound) [1]: 151%

[2H]C([2H])([2H])C([2H])([2H])NC([2H])([2H])C([2H])([2H])c1c[nH]c2cccc(O)c12
RLM, % (half-life as % vs. the related nondeuterated compound) [1]: [93] %

[2H]c1[nH]c2c([2H])c([2H])c(OC)c([2H])c2c1CCN(CC)CC
RLM, % (half-life as % vs. the related nondeuterated compound) [1]: 172%

[2H]C([2H])(c1c[nH]c2ccccc12)C([2H])([2H])N(CC)CC
RLM, % (half-life as % vs. the related nondeuterated compound) [1]: [105] %

[2H]C([2H])(c1c[nH]c2ccc(OC)cc12)C([2H])([2H])N(CC)CC
RLM, % (half-life as % vs. the related nondeuterated compound) [1]: [95] %

[2H]C([2H])(c1c[nH]c2ccc(O)cc12)C([2H])([2H])N(CC)CC
RLM, % (half-life as % vs. the related nondeuterated compound) [1]: [106] %

[2H]c1ccc2[nH]c([2H])c(CCN([2H])CC)c2c1O
RLM (metabolized or not) [1]: R

[2H]C([2H])(NCC)C([2H])([2H])c1c[nH]c2ccccc12
MAO, % (half-life as % vs. the related nondeuterated compound) [2]: 140% | RLM, % (half-life as % vs. the related nondeuterated compound) [1]: 142%

[2H]C([2H])(Cc1c[nH]c2ccccc12)NCC
MAO, % (half-life as % vs. the related nondeuterated compound) [2]: 145% | RLM, % (half-life as % vs. the related nondeuterated compound) [1]: 138%

[2H]C([2H])(NCC)C([2H])([2H])c1c[nH]c2cccc(O)c12
RLM, % (half-life as % vs. the related nondeuterated compound) [1]: [94] %

[2H]C([2H])([2H])Oc1ccc2[nH]cc(C([2H])([2H])C([2H])([2H])N(C([2H])([2H])[2H])C([2H])([2H])[2H])c2c1
MAO, % (half-life as % vs. the related nondeuterated compound) [2]: 372% | RLM, % (half-life as % vs. the related nondeuterated compound) [1]: 299%

[2H]C([2H])([2H])Oc1ccc2[nH]cc(CC([2H])([2H])N(C([2H])([2H])[2H])C([2H])([2H])[2H])c2c1
MAO, % (half-life as % vs. the related nondeuterated compound) [2]: 366% | RLM, % (half-life as % vs. the related nondeuterated compound) [1]: 288%

[2H]C([2H])([2H])NC([2H])([2H])C([2H])([2H])c1c[nH]c2ccccc12
MAO, % (half-life as % vs. the related nondeuterated compound) [2]: 711% | RLM, % (half-life as % vs. the related nondeuterated compound) [1]: 214%

[2H]C([2H])([2H])NC([2H])([2H])Cc1c[nH]c2ccccc12
MAO, % (half-life as % vs. the related nondeuterated compound) [2]: 744% | RLM, % (half-life as % vs. the related nondeuterated compound) [1]: 207%

[2H]C([2H])([2H])NC([2H])([2H])C([2H])([2H])c1c[nH]c2cccc(O)c12
MAO, % (half-life as % vs. the related nondeuterated compound) [2]: 459% | RLM, % (half-life as % vs. the related nondeuterated compound) [1]: 173%

[2H]C([2H])([2H])NC([2H])([2H])Cc1c[nH]c2cccc(O)c12
MAO, % (half-life as % vs. the related nondeuterated compound) [2]: 466% | RLM, % (half-life as % vs. the related nondeuterated compound) [1]: 163%

[2H]C([2H])(c1c[nH]c2ccccc12)C([2H])([2H])N(C)CC
MAO, % (half-life as % vs. the related nondeuterated compound) [2]: 162% | RLM, % (half-life as % vs. the related nondeuterated compound) [1]: 131%

[2H]C([2H])(Cc1c[nH]c2ccccc12)N(C)CC
MAO, % (half-life as % vs. the related nondeuterated compound) [2]: 168% | RLM, % (half-life as % vs. the related nondeuterated compound) [1]: 121%

[2H]C([2H])(c1c[nH]c2ccc(OC)cc12)C([2H])([2H])N(C)CC
MAO, % (half-life as % vs. the related nondeuterated compound) [2]: 132% | RLM, % (half-life as % vs. the related nondeuterated compound) [1]: 115%

[2H]C([2H])(Cc1c[nH]c2ccc(OC)cc12)N(C)CC
MAO, % (half-life as % vs. the related nondeuterated compound) [2]: 126% | RLM, % (half-life as % vs. the related nondeuterated compound) [1]: 117%

[2H]C([2H])(c1c[nH]c2ccc(O)cc12)C([2H])([2H])N(C)CC
MAO, % (half-life as % vs. the related nondeuterated compound) [2]: 179% | RLM, % (half-life as % vs. the related nondeuterated compound) [1]: 144%

[2H]C([2H])(Cc1c[nH]c2ccc(O)cc12)N(C)CC
MAO, % (half-life as % vs. the related nondeuterated compound) [2]: 173% | RLM, % (half-life as % vs. the related nondeuterated compound) [1]: 132%

[2H]C([2H])(c1c[nH]c2cccc(OC)c12)C([2H])([2H])N(C)CC
MAO, % (half-life as % vs. the related nondeuterated compound) [2]: 291% | RLM, % (half-life as % vs. the related nondeuterated compound) [1]: 161%

[2H]C([2H])(Cc1c[nH]c2cccc(OC)c12)N(C)CC
MAO, % (half-life as % vs. the related nondeuterated compound) [2]: 281% | RLM, % (half-life as % vs. the related nondeuterated compound) [1]: 163%

[2H]c1[nH]c2c([2H])c([2H])c([2H])c([2H])c2c1C([2H])([2H])C([2H])([2H])N(C)C
MAO, % (half-life as % vs. the related nondeuterated compound) [2]: 551% | RLM, % (half-life as % vs. the related nondeuterated compound) [1]: 243%

[2H]c1[nH]c2c([2H])c([2H])c([2H])c([2H])c2c1CCN(C)C
MAO, % (half-life as % vs. the related nondeuterated compound) [2]: [103] % | RLM, % (half-life as % vs. the related nondeuterated compound) [1]: [106] %

[2H]C([2H])([2H])Oc1ccc2[nH]cc(CCN(C)C)c2c1
MAO, % (half-life as % vs. the related nondeuterated compound) [2]: [109] % | RLM, % (half-life as % vs. the related nondeuterated compound) [1]: 151%

[2H]C([2H])(c1c[nH]c2ccc(OC)cc12)C([2H])([2H])N(C)C
MAO, % (half-life as % vs. the related nondeuterated compound) [2]: 229% | RLM, % (half-life as % vs. the related nondeuterated compound) [1]: 184%

[2H]C([2H])(c1c[nH]c2ccc(O)cc12)C([2H])([2H])N(C)C
MAO, % (half-life as % vs. the related nondeuterated compound) [2]: 418% | RLM, % (half-life as % vs. the related nondeuterated compound) [1]: 136%

[2H]C([2H])(Cc1c[nH]c2ccc(O)cc12)N(C)C
MAO, % (half-life as % vs. the related nondeuterated compound) [2]: 415% | RLM, % (half-life as % vs. the related nondeuterated compound) [1]: 133%

[2H]C([2H])(c1c[nH]c2cccc(OC)c12)C([2H])([2H])N(C)C
MAO, % (half-life as % vs. the related nondeuterated compound) [2]: 325% | RLM, % (half-life as % vs. the related nondeuterated compound) [1]: 190%

[2H]C([2H])(Cc1c[nH]c2cccc(OC)c12)N(C)C
MAO, % (half-life as % vs. the related nondeuterated compound) [2]: 335% | RLM, % (half-life as % vs. the related nondeuterated compound) [1]: 185%

[2H]C([2H])(NC)C([2H])([2H])c1c[nH]c2ccccc12
MAO, % (half-life as % vs. the related nondeuterated compound) [2]: 622% | RLM, % (half-life as % vs. the related nondeuterated compound) [1]: 189%

[2H]C([2H])(Cc1c[nH]c2ccccc12)NC
MAO, % (half-life as % vs. the related nondeuterated compound) [2]: 578% | RLM, % (half-life as % vs. the related nondeuterated compound) [1]: 182%

[2H]C([2H])(NC)C([2H])([2H])c1c[nH]c2cccc(O)c12
MAO, % (half-life as % vs. the related nondeuterated compound) [2]: 396% | RLM, % (half-life as % vs. the related nondeuterated compound) [1]: 160%

[2H]C([2H])(Cc1c[nH]c2cccc(O)c12)NC
MAO, % (half-life as % vs. the related nondeuterated compound) [2]: 395% | RLM, % (half-life as % vs. the related nondeuterated compound) [1]: 154%

[2H]c1[nH]c2c([2H])c([2H])c([2H])c([2H])c2c1CCN([2H])C(C)C
RLM, % (half-life as % vs. the related nondeuterated compound) [1]: 145%

[2H]c1[nH]c2c([2H])c([2H])c([2H])c(O)c2c1CCN([2H])C(C)C
RLM, % (half-life as % vs. the related nondeuterated compound) [1]: 131%

[2H]C([2H])(NC(C)C)C([2H])([2H])c1c[nH]c2ccccc12
RLM, % (half-life as % vs. the related nondeuterated compound) [1]: [106] %

[2H]C([2H])(NC(C)C)C([2H])([2H])c1c[nH]c2cccc(O)c12
RLM, % (half-life as % vs. the related nondeuterated compound) [1]: [108] %

[2H]c1[nH]c2c([2H])c([2H])c([2H])c(O)c2c1CCN(C(C)C)C(C)C
RLM, % (half-life as % vs. the related nondeuterated compound) [1]: 167%

[2H]C([2H])(c1c[nH]c2cccc(O)c12)C([2H])([2H])N(C(C)C)C(C)C
RLM, % (half-life as % vs. the related nondeuterated compound) [1]: [97] %

C=CCN(CC=C)CCc1c[nH]c2ccccc12 [reference compound]
RLM (metabolized or not) [1]: R

C=CCNCCc1c[nH]c2ccccc12 [reference compound]
RLM (metabolized or not) [1]: R

CCN(CC)CCc1c[nH]c2ccccc12 [reference compound]
RLM (metabolized or not) [1]: R

CCN(CC)CCc1c[nH]c2ccc(OC)cc12 [reference compound]
RLM (metabolized or not) [1]: R

CCN(CC)CCc1c[nH]c2ccc(O)cc12 [reference compound]
RLM (metabolized or not) [1]: R

CCN(CC)CCc1c[nH]c2cccc(OC)c12 [reference compound]
RLM (metabolized or not) [1]: R

CCNCCc1c[nH]c2cccc(O)c12 [reference compound]
RLM (metabolized or not) [1]: R

CC(C)NCCc1c[nH]c2ccccc12 [reference compound]
RLM (metabolized or not) [1]: R

CC(C)NCCc1c[nH]c2cccc(O)c12 [reference compound]
RLM (metabolized or not) [1]: R

CC(C)N(CCc1c[nH]c2cccc(O)c12)C(C)C [reference compound]
RLM (metabolized or not) [1]: R

From US12240813B2, “Deuterated tryptamine derivatives and methods of use” (priority 2020, dated 2025)
